Measurements published in BindingDB's records for doi:10.1021/jm960012o (Allergan, 1996).

Assay: Displacement of [3H]-clonidine from bovine imidazoline receptor I-1
Clc1cccc(Cl)c1N=C1NCCN1 [2-(2,6-dichloroanilino)-2-imidazoline] showed a Ki of 8.9 nM.
In the case of COc1nc(C)nc(Cl)c1N=C1NCCN1 [(4-Chloro-6-methoxy-2-methyl-pyrimidin-5-yl)-imidazolidin-2-ylidene-amine], the Ki is reported as 56 nM.
With NC[C@H](O)c1ccc(O)c(O)c1 [4-[(1R)-2-amino-1-hydroxyethyl]benzene-1,2-diol] the Ki was greater than 100000 nM.
Work on CC(C)C1C2CCC(C2)C1N (centres undefined) [3-Isopropyl-bicyclo[2.2.1]hept-2-ylamine] yielded a Ki of 42 nM.
